The target of one assay is CFTR (Homo sapiens, UniProt P13569, DEL508-508). The note with it: cited from earlier work.
Assay [1] relates to NPC1. The experiment in a line: NPC1 variant trafficking index (TrIdx, endo H resistance) in NPC1 null cell lines. It is filed as cell-based, human. The text has this:
(§1) NPC1 is composed of multiple domains that harbor the different variants contributing to disease. Given the heterozygous allelic composition of most NPC1 primary fibroblasts that compromise interpretation of the impact of a specific allele on disease progression, we silenced NPC1 expression with shRNA to generate stable null cell lines. These null cell lines were transiently transfected with a sparse collection of plasmids that each harbor one of 48 distinct NPC1 disease-associated variants in NPC1 distributed among the various NPC1 domains. […] We binned this sparse collection of variants into 4 functional classes (Cass I-IV). Class I variants lack polypeptide expression in response to non-sense and/or splicing (truncation) mutations (null), Class II missense variants are largely ER retained (defined as <0.2 TrIdx), Class III missense variants show an intermediate level of trafficking (defined as 0.2 to 0.5 TrIdx) and Class IV missense variants have a level of trafficking >0.5 TrIdx indicating significant export from the ER. […] The impact of cholesterol (ChoI) storage in the LE/LY for each of these variants was measured using automated high content screening image analysis based on filipin staining.
(§2) Each of the 48 NPC1 variants was examined for the impact of SAHA on both TrIdx and ChoI in the LE/LY. […] The effects of HDACi were NPC1-dependent as restoration of ChoI homeostasis by SAHA was not observed in fibroblasts lacking NPC1 and in null cell-lines lacking NPC1.

In assay [2] the test system is NPC1. The note with it: cited from earlier work.
Assay [3] has as its system NPC1. The assay can be described thus: cholesterol storage in LE/LY by filipin staining, high content image analysis. In kind it is cell-based, human.
Description: as §1, §2

This is an account of results in US12584173B2, “Methods for disease treatment and drug discovery” (The Scripps Research Institute, priority 2018, dated 2026).

SMILES strings stand for the structures.

CFTR, sequence (P13569 with tags, fused parts or gaps DEL508-508): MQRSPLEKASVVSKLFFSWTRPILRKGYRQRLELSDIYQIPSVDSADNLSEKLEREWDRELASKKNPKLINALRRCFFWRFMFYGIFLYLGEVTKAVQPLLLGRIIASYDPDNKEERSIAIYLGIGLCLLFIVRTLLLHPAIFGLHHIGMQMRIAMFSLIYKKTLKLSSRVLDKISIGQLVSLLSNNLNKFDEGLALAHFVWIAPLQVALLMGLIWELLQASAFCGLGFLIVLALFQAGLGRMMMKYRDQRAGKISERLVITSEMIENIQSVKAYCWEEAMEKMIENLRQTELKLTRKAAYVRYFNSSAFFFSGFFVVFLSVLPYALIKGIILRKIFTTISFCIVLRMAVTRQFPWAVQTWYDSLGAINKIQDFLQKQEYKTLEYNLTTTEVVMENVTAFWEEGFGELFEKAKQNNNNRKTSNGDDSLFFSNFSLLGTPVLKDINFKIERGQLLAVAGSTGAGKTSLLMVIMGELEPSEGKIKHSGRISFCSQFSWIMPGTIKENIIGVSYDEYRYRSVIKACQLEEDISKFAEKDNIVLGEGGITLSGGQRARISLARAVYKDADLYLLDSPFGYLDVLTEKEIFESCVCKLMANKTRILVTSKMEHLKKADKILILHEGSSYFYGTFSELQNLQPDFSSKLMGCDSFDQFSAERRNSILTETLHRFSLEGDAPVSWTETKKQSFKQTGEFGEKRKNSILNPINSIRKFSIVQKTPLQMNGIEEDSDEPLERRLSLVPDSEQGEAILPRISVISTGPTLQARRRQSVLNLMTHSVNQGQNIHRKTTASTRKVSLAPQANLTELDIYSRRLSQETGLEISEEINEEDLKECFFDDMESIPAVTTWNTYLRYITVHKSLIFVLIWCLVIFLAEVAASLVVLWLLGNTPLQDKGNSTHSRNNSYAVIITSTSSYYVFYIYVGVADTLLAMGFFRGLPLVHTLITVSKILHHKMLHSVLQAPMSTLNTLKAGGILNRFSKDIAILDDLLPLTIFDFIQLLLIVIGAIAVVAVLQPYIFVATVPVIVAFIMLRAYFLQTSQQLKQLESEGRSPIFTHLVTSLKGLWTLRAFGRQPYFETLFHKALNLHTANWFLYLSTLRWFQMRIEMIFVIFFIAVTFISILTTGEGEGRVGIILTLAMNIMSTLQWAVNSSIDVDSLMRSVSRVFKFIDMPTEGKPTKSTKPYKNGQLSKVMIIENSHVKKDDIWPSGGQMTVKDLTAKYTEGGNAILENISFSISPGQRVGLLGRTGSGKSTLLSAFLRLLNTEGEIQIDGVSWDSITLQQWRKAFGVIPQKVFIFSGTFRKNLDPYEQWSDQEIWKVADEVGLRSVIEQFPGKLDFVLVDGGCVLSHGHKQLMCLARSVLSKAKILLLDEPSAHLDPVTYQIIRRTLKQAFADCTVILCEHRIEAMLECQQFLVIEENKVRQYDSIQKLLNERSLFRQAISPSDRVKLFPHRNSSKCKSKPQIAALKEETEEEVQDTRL

Regarding `CC(C)(C)c1cc(C(C)(C)C)c(NC(=O)c2c[nH]c3ccccc3c2=O)cc1O` [Ivacaftor], on CFTR, the “effect on export or function of F508del” value is “no effect”.
With `O=C(CCCCCCC(=O)Nc1ccccc1)NO` [SAHA, Vorinostat], the TrIdx result in the assay on NPC1 [1] (NPC1 H510P) is recorded as “inability of SAHA to improve”; in the assay with NPC1 [1] (NPC1 P532L) it was “improved”; with NPC1 [1] (NPC1 R518Q), “large improvement”. In addition, the “TrIdx class after treatment” value in the assay on NPC1 [1] (majority of NPC1 variants with a TrIdx<0.2) is given as “at least a Class III TrIdx”. In the assay on NPC1 [1] (variants involved in the predicted path of cholesterol flow, TM region), the trafficking result is listed as “not changed”. Further, the “correction of the I1061T phenotype (protein stabilized for export to LE/LY, improved cholesterol homeostasis)” value in the assay with NPC1 [2] is listed as “correct the I1061T phenotype”. The ChoI result in the assay with NPC1 [3] (NPC1 H510P) was “lack of significant correction”; in the assay on NPC1 [3] (NPC1 P532L) it was “improved”. For the same compound, the cholesterol homeostasis result in the assay on NPC1 [3] (NPC1 R518Q) is “does not significantly improve”. In addition, the response to treatment entry with NPC1 [3] (NPC1 V950M, S954L, P1007A and T1036M (CLD5, late age of neurological onset cluster)) is listed as “highly responsive”. Moreover, the “restoration of ChoI homeostasis” value in the assay on NPC1 [3] (fibroblasts lacking NPC1 and null cell-lines lacking NPC1) is given as “not observed”. Moreover, in the assay with NPC1 [3] (in all domains), the “cholesterol homeostasis of NPC1 variants” value is recorded as “significantly restored”. Besides, the cholesterol storage state result in the assay with NPC1 [3] (variants along the predicted cholesterol flow path (R1077Q, Y1088C, W1145R, Y634C, P691S, L1191F)) was “improved to level of WT or even better than WT”.
